# Measured values as given in patent publication US10617693B2, “Methods of treating and/or preventing actinic keratosis” (Athenex, Inc., priority 2017, dated 2020).
# Key:
# [1] = test system: AK lesions on the dorsal forearm; assay: Phase 1 study KX01-AK-01-US: AK lesion counts and clearance; assay type: in vivo, human
# Experimental: KX-01 was administered topically on treatment days. […] Standardized photography of the treatment area was performed.
# [2] = test system: AK lesions on the face or scalp; assay: Phase 2a study KX01-AK-002: AK lesion counts and clearance at day 57, 0.5 mg KX-01 on 25 cm^2; assay type: in vivo, human; settings: for Subjects with 100% clearance of AK lesions on day 57 / Subjects with at least 75% reduction of AK lesions on day 57 / AK lesion count, median: Cohort 1 (5-day), interim
# Source text: An ongoing Phase 2a, open-label, multicenter, activity and safety study of KX-01 administered topically in subjects with AK on the face or scalp is described herein. […] Secondary objectives are to assess the activity of KX-01 administered topically during Days 1-57 based on reduction of AK lesion counts from baseline, assess the safety and tolerability and pharmacokinetics, and contrast the dose regimens (5-day treatment with 3-day treatment) in terms of activity and safety in subjects with AK on the face or scalp. This uncontrolled, nonrandomized trial is being conducted at 16 investigational sites in the United States. Enrollment is sequential for 2 cohorts of approximately 80 subjects each. Enrollment is closed for Cohort 1 and ongoing for Cohort 2. The two treatment cohorts are summarized below: • Cohort 1: 0.5 mg KX-01 administered topically to a contiguous treatment area of 25 cm^2 with 4-8 clinically typical AK lesions for 5 consecutive days • Cohort 2: 0.5 mg KX-01 administered topically to a contiguous treatment area of 25 cm^2 with 4-8 clinically typical AK lesions for 3 consecutive days
# 0.5 mg KX-01 is administered topically to an area of 25 cm^2 on the face or scalp by site staff on treatment days. […] AK lesion counts are recorded at baseline, days 8, 15, 29, and 57. […] Standardized photography of treatment area is performed at baseline, day 8 and day 57. Plasma samples are being collected at preplanned time points on days 1 and 5 for Cohort 1, and on days 1 and 3 for Cohort 2.
# The Phase 2a trial described in Example 2a was completed with 84 eligible subjects enrolled in each of two cohorts: one cohort was subjected to the treatment for 5 consecutive days, and the other cohort was subjected to the treatment for 3 consecutive days. The results are described below and in FIG. 5.
# [3] = Plasma pharmacokinetics after topical administration, LC-MS/MS; assay type: in vivo, human
# Experimental: KX-01 was tested in adult subjects with actinic keratosis of the dorsal forearm (Example 1) and actinic keratosis on the face or scalp (Examples 2a and 2b). In Example 1, the plasma pharmacokinetics (PK) of KX-01 following topical administration was evaluated by collection of plasma on days 1 and 3 of the 3-day regimens and on days 1 and 5 of the 5-day regimens (Table 12). In Examples 2a and 2b, plasma samples were collected on days 1 and 5 of Cohort 1 (Table 13). Plasma samples at similar time points were collected on days 1 and 3 of Cohort 2. KX-01 was measured in human plasma using a validated LC-MS/MS assay with a lower limit of quantification (LLOQ) of 0.1 ng/mL.
# [4] = test system: subjects with AK on the dorsal forearm; settings: human, in vivo
# Experimental: A Phase 1, single-center, safety, tolerability and pharmacokinetic study of KX-01 was performed on subjects with AK on the dorsal forearm. This was an open-label, uncontrolled, nonrandomized, sequential group clinical trial conducted at a single investigational center in the United States. The primary objectives of the study were to assess the safety, tolerability and pharmacokinetics of KX-01 in subjects with AK. The secondary objective was to evaluate the activity of KX-01 administered topically to the dorsal forearm in subjects with AK.
# KX-01 was administered topically on treatment days. All subjects were monitored for safety and tolerability that included LSRs, AEs, vital signs, clinical laboratory tests, ECGs, and physical examinations at baseline and at pre-defined time points during treatment and follow-up on days 1, 2, 3, 4, 5, 8, 10, 17, 31 and 45.
# LSRs (erythema, flaking/scaling, crusting, swelling, vesiculation/pustulation, erosion/ulceration) were assessed by the investigator or trained designee using a 4-point scale according to the protocol. The subject's assessment of the symptoms (stinging/burning, pruritus) associated with irritation of the treatment area was evaluated on a 4-point scale (0=none, 1=mild, 2=moderate, 3=severe). Subjects were queried for spontaneously reported AEs at each study visit before assessment of LSRs. LSRs and AEs were reported separately. All LSRs were to be followed to resolution or stabilization.
smiles,measurement,setting,value
O=C(Cc1ccc(-c2ccc(OCCN3CCOCC3)cc2)cn1)NCc1ccccc1 [KX-01],"Complete Clearance on Day 45 (100% reduction in AK lesions vs Baseline), n/N (%)",[1]; Cohort 2: 2 mg/100 cm^2 QD x3 days,0/10
same,"AK lesion count, median (min, max)","[1]; Day 1 (Baseline), Cohort 1: 0.5 mg/25 cm^2 QD x3 days","5.0 (4, 5)"
same,"AK lesion count, median (min, max)","[1]; Day 1 (Baseline), Cohort 2: 2 mg/100 cm^2 QD x3 days","11.5 (8, 16)"
same,"AK lesion count, median (min, max)","[1]; Day 1 (Baseline), Cohort 3: 0.5 mg/25 cm^2 QD x5 days","6.0 (5, 6)"
same,"AK lesion count, median (min, max)","[1]; Day 1 (Baseline), Cohort 4: 2 mg/100 cm^2 QD x5 days","11.0 (10, 16)"
same,"AK lesion count, median (min, max)","[1]; Day 4, Cohort 1: 0.5 mg/25 cm^2 QD x3 days","5.0 (4, 5)"
same,"AK lesion count, median (min, max)","[1]; Day 4, Cohort 2: 2 mg/100 cm^2 QD x3 days","9.0 (6, 16)"
same,"AK lesion count, median (min, max)","[1]; Day 10, Cohort 1: 0.5 mg/25 cm^2 QD x3 days","5.0 (4, 5)"
same,"AK lesion count, median (min, max)","[1]; Day 10, Cohort 2: 2 mg/100 cm^2 QD x3 days","7.0 (6, 11)"
same,"AK lesion count, median (min, max)","[1]; Day 10, Cohort 3: 0.5 mg/25 cm^2 QD x5 days","5.0 (5, 6)"
same,"AK lesion count, median (min, max)","[1]; Day 10, Cohort 4: 2 mg/100 cm^2 QD x5 days","10.0 (10, 10)"
same,"AK lesion count, median (min, max)","[1]; Day 17, Cohort 1: 0.5 mg/25 cm^2 QD x3 days","4.5 (3, 5)"
same,"AK lesion count, median (min, max)","[1]; Day 17, Cohort 2: 2 mg/100 cm^2 QD x3 days","7.0 (5, 15)"
same,"AK lesion count, median (min, max)","[1]; Day 17, Cohort 3: 0.5 mg/25 cm^2 QD x5 days","5.0 (4, 6)"
same,"AK lesion count, median (min, max)","[1]; Day 17, Cohort 4: 2 mg/100 cm^2 QD x5 days","10.0 (10, 11)"
same,"AK lesion count, median (min, max)","[1]; Day 31, Cohort 1: 0.5 mg/25 cm^2 QD x3 days","3.5 (1, 5)"
same,"AK lesion count, median (min, max)","[1]; Day 31, Cohort 2: 2 mg/100 cm^2 QD x3 days","7.0 (1, 15)"
same,"AK lesion count, median (min, max)","[1]; Day 31, Cohort 3: 0.5 mg/25 cm^2 QD x5 days","1.0 (0, 6)"
same,"AK lesion count, median (min, max)","[1]; Day 31, Cohort 4: 2 mg/100 cm^2 QD x5 days","6.0 (0, 11)"
same,"AK lesion count, median (min, max)","[1]; Day 45, Cohort 1: 0.5 mg/25 cm^2 QD x3 days","2.5 (0, 4)"
same,"AK lesion count, median (min, max)","[1]; Day 45, Cohort 2: 2 mg/100 cm^2 QD x3 days","4.0 (1, 10)"
same,"AK lesion count, median (min, max)","[1]; Day 45, Cohort 3: 0.5 mg/25 cm^2 QD x5 days","0.5 (0, 4)"
same,"AK lesion count, median (min, max)","[1]; Day 45, Cohort 4: 2 mg/100 cm^2 QD x5 days","4.5 (0, 12)"
same,Change in AK lesion counts over time,[1]; all 4 cohorts,reductions in mean baseline AK lesion counts over time
same,Activity of 5-day versus 3-day regimen,[1]; rates of complete and partial clearance,5-day regimen may provide better activity than the 3-day regimen
same,Activity compared to Picato Phase 3 studies,"[2]; 5-day regimen, cross-study tabulation",may be comparable
same,Subjects with 100% clearance of AK lesions on day 57,"[2]; face, 35 subjects",43%
same,Subjects with at least 75% reduction of AK lesions on day 57,"[2]; face, 35 subjects",60%
same,Subjects with 100% clearance of AK lesions on day 57,"[2]; overall, 67 subjects",36%
same,Subjects with at least 75% reduction of AK lesions on day 57,"[2]; overall, 67 subjects",51%
same,Subjects with 100% clearance of AK lesions on day 57,"[2]; scalp, 32 subjects",28%
same,Subjects with at least 75% reduction of AK lesions on day 57,"[2]; scalp, 32 subjects",41%
same,"AK lesion count, median",[2]; Day 1,6.0
same,"AK lesion count, median",[2]; Day 8,5.0
same,"AK lesion count, median",[2]; Day 15,4.0
same,"AK lesion count, median",[2]; Day 29,2.0
same,"AK lesion count, median",[2]; Day 57,2.0
same,Activity of 5-day versus 3-day regimen,"[2]; Examples 1, 2a and 2b",greater activity than the 3-day regimen
same,"Plasma concentration, back-up sample","[3]; Day 5, 0.5 hours post-dose, back-up of the 23 ng/mL sample",BLQ
same,"Plasma concentration, aberrant primary sample","[3]; Day 5, 0.5 hours post-dose, likely cross contamination",23 ng/mL
same,"Plasma concentration, back-up sample","[3]; Day 5, 1 hour post-dose, back-up of the 44 ng/mL sample",0.351 ng/mL
same,"Plasma concentration, aberrant primary sample","[3]; Day 5, 1 hour post-dose, likely cross contamination",44 ng/mL
same,Plasma samples above the limit of quantification,"[3]; KX01-AK-002, after 1 day of treatment, of 336 samples",15
same,Measurable plasma concentrations,"[3]; KX01-AK-002, all except three aberrant samples",below 0.7 ng/mL
same,Subjects with measurable plasma concentrations at 4 hours post-dose on Day 5,[3]; KX01-AK-002 Cohort 1,42 out of 84
same,Subjects with quantifiable concentrations prior to the dose on Day 5,[3]; KX01-AK-002 Cohort 1,8 of 84
same,"Plasma concentration, back-up sample",[3]; back-up of the third aberrant sample,30 ng/mL
same,Plasma concentrations below the level of quantification (BLQ),[3]; both studies,75%
same,concentration at 5 days,"[3]; human, plasma, up to 5 consecutive days of topical treatment, read-out: Systemic exposure (plasma concentration)",< 1 ng/mL
same,"Apparent plasma concentration, aberrant sample","[3]; third aberrant sample, likely cross contamination","above 12,500 ng/mL"
same,Systemic exposure (plasma concentration),[3]; up to 5 consecutive days of topical treatment,< 1 ng/mL
same,Serious adverse event (SAE) or death,[4],no serious adverse event (SAE) or death
